Experimental findings from US20060281806A1, “Treatment and inhibition of disease conditions using flexible heteroarotinoids” (priority 2005, published 2006) are described below.

In assay [1] the test system is NCI human tumor cell line panel. As to the kind of experiment: SHetA2 cytotoxicity in NCI human tumor cell line panel. The assay is classed as cell-based. Particulars: 48 h. On the procedure: The SHetA2 compound was evaluated in the National Cancer Institute (NCI) human tumor cell line panel by the Developmental Therapeutics Program (DTP). The human tumor cell lines were grown in RPMI 1640 medium containing 5% fetal bovine serum and 2 mM L-glutamine. Cells were inoculated into 96 well microtiter plates at densities ranging from 5,000 to 40,000 cells/well depending on the doubling time of individual cell lines and incubated for 24 h prior to addition of SHetA2. After 24 h, two plates of each cell line were fixed in situ with TCA, to represent a measurement of the cell population for each cell line at the time of drug addition (Tz). Drugs were dissolved in dimethyl sulfoxide (DMSO) and diluted in complete medium containing 50 μg/ml gentamicin, prior to addition to the culture wells. […] […] The absorbance was read on an automated plate reader at a wavelength of 515 nm. Using the seven absorbance measurements (time zero, (Tz), control growth, (C), and test growth in the presence of drug at the five concentration levels (Ti)), the GI50 was calculated from [(Ti−Tz)/(C−Tz)]×100=50. […]

The subject of assay [2] is blood vessel density in bFGF/VEGF-treated CAMs. Kind of assay: Chorioallantoic membrane (CAM) assay. The assay is classed as in vivo, chick. Particulars: 5 μM SHetA2; versus bFGF/VEGF-treated CAMs. On the procedure: FIG. 8. Effect of 5 μM SHetA2 on blood vessel density in the CAM assay. The mean± SEM blood vessel density per treatment as compared to bFGF/VEGF-treated CAMs; *=p<0.05 and **=p<0.001 as compared to bFGF/VEGF-treated CAMs as determined by one-way ANOVA and Neuman-Keuls post-test.
The CAM assay that was used is based upon the original procedure by Jakob et al. (36) with modifications made by our laboratory (37, 38) (see FIG. 8).

Turning to `CC1(C)CC(C)(C)c2cc(NC(=S)Nc3ccc([N+](=O)[O-])cc3)ccc2S1` [SHetA2], the percent growth result in assay [1] (10 and 100 μM SHetA2, majority of cell lines) was “negative percent growth levels”. The GI50 values entry in assay [1] (55 cell lines representing 9 cancer types) is “micromolar range”. Also, the “angiogenesis (blood vessel density) in CAM assay” value in assay [2] is recorded as “inhibits angiogenesis”.
